{"source": "paper PMC2568824", "about": "“Dibutyltin Disrupts Glucocorticoid Receptor Function and Impairs Glucocorticoid-Induced Suppression of Cytokine Production” (PLoS ONE, 2008)", "key": {"[1]": {"target": "T1, glucocorticoid receptor (GR-α) (Homo sapiens, UniProt P04150)", "T1 sequence (P04150 1-777)": "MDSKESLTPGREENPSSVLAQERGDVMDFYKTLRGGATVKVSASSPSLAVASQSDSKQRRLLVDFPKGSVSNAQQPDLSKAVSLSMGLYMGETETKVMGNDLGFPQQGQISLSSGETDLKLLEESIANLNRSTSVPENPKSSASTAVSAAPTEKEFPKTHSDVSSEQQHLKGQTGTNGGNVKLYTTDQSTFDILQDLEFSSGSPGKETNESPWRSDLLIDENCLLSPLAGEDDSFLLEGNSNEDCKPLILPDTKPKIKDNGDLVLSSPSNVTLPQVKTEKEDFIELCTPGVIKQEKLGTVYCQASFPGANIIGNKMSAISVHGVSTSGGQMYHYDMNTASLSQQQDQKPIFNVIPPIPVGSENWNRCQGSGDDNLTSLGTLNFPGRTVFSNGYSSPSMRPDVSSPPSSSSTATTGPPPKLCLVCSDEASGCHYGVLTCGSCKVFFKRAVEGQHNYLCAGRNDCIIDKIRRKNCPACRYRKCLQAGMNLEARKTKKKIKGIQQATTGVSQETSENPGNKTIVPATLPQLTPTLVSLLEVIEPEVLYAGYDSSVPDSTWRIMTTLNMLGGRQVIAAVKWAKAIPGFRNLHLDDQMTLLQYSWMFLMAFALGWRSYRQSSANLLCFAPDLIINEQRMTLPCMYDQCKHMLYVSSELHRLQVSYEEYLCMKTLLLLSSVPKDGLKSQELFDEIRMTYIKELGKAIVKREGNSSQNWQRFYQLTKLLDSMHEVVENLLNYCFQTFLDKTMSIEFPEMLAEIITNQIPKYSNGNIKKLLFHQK", "parameters": "gene NR3C1"}, "[2]": {"target": "T1, glucocorticoid receptor (GR-α)", "experiment": "inhibition of [3H]-dexamethasone binding in intact GR-transfected HEK-293 cells, overnight DBT preincubation ([…] for […] inhibition without preincubation); also transactivation reporter", "format": "cell-based", "parameters": "gene NR3C1; human GR-α, transiently expressed in HEK-293 cells"}}}
{"molecule": "C[C@@H]1C[C@H]2[C@@H]3CCC4=CC(=O)C=C[C@]4(C)[C@@]3(F)[C@@H](O)C[C@]2(C)[C@@]1(O)C(=O)CO", "note": "[Dex, dexamethasone]", "values": [{"measurement": "radioligand binding (10 nM [3H]-dexamethasone) and displacement by unlabeled dex", "setting": "[1]", "result": "Addition of unlabeled dexamethasone revealed a typical displacement pattern of tritiated dexamethasone in the presence or absence of DBT"}]}
{"molecule": "dibutyltin [DBT]", "values": [{"measurement": "IC50", "setting": "[2]", "result": "~50", "unit": "nM"}]}
